# Several values for one entry are separate records, joined by “and”; a condition that tells them apart may be missing. Equal values may be shown once. Read-outs that look alike come from different tables or passages of the source.
# Legend:
# [1] = target: SARS-CoV-2 NSP3 macrodomain (Mac1) (Severe acute respiratory syndrome coronavirus 2, UniProt P0DTD1); assay: biochemical; format: binding
# [2] = target: T1, human macrodomain MacroD2 (Homo sapiens, UniProt A1Z1Q3); assay: HTRF peptide displacement assay, MacroD2; format: binding
# T1 sequence (A1Z1Q3 with tags, fused parts or gaps): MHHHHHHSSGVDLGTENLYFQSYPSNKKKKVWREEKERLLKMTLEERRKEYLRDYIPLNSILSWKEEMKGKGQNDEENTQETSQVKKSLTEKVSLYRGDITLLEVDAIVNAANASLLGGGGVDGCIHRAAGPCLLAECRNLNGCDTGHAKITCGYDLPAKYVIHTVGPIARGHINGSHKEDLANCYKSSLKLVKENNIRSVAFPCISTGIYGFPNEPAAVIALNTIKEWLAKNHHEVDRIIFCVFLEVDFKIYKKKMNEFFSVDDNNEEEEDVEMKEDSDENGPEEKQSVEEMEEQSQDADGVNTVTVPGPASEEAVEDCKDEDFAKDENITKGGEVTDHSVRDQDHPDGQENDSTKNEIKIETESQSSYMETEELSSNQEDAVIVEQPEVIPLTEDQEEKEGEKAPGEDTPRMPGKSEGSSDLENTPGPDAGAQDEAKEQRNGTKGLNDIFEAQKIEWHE
# human macrodomain Targ1 = target: T2, human macrodomain Targ1 (Homo sapiens, UniProt Q9Y530); assay: HTRF peptide displacement assay, Targ1; format: binding
# T2 sequence (Q9Y530 with tags, fused parts or gaps): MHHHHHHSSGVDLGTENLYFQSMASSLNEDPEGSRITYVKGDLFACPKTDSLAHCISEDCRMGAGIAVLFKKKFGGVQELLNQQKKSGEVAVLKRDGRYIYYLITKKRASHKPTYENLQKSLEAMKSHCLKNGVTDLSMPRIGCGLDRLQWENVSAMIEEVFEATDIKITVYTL
# in vitro = conditions: human; for Papp A→B at 1 h / Papp B→A at 1 h: Caco-2
# Procedure: (§1) Caco-2 cell plates were obtained commercially and were maintained for 21 days at 37°C with 5% CO2. Cells were washed with Hank’s Balanced Salt Solution (HBSS) with 5 mM HEPES for 30 minutes before starting the experiment. Test compound solutions are prepared by diluting DMSO stock into HBSS buffer, resulting in a final DMSO concentration of 0.1%. Prior to the assay, cell monolayer integrity was verified by […] electrical resistance (TEER) to ensure that wells have resistance above the acceptance cut-off (1 kΩ). Transport experiments were initiated by adding test compounds to the apical (75 μl) or basal (250 μl) side. Transport plates were incubated at 37°C in a humidified incubator with 5% CO2. Samples were taken from the donor and acceptor compartments after one hour and analyzed by liquid chromatography with tandem mass spectrometry (LC/MS/MS) using an AB Sciex API 4000 instrument, coupled to a Shimadzu LC-20AD LC Pump system. Samples were separated using a Waters Atlantis T3 dC18 reverse phase HPLC column (20 mm × 2.1 mm) at a flow rate of 0.5 ml/min. The mobile phase consisted of 0.1% formic acid in acetonitrile (solvent A) and 0.1% formic acid in water (solvent B).
# (§2) Apparent permeability (Papp) values were calculated using the following equation: Papp=(dQ/dt)/A/C0 where dQ/dt is the initial rate of compound transport across the cell monolayer, A is the surface area of the filter membrane, and C0 is the initial concentration of the test compound, calculated for each direction using a four-point calibration curve by LC/MS/MS.
# (§3) Net flux ratio between the two directional transports was calculated by the following equation: Ratio=PappB-A/PappA-B where PappB-A and PappA-B represent the apparent permeability of compounds from the basal-to-apical and apical-to-basal side of the cellular monolayer, respectively. Recovery was calculated based on the compound concentration at the end of the experiment, compared to that at the beginning of the experiment, adjusted for volumes.
# Caco-2 cells = assay: in vitro
# Procedure: as §1, §2, §3
# Microsomal stability = format: in vitro ADME, mouse; conditions: for microsomal CLint at 1 µM / half-life at 1 µM: pH 7.4
# Procedure: The assay was carried out in 96-well plates at 37°C. Reaction mixtures (25 μl) contained a final concentration of 1 μM compound, 0.5 mg/ml liver microsomes protein, and 1 mM NADPH and/or 1 mM UDPGA (with alamethicin) in 100 mM potassium phosphate (pH 7.4) with 3 mM MgCl2. After 0, 15, 30, and 60 minutes, 150 μl of quench solution (100% acetonitrile with 0.1% formic acid) with internal standard was transferred to each well. Reactions containing the same components except the NADPH were prepared as the negative control. Plates were sealed, vortexed, and centrifuged at 4°C for 15 minutes at 4000 rpm.
# The extent of metabolism was calculated as the disappearance of compounds, compared to the 0-min time incubation.
# [3] = target: SARS-CoV-2 NSP3 macrodomain (Mac1), P43 crystal form (Severe acute respiratory syndrome coronavirus 2, UniProt P0DTD1); format: binding; conditions: for 1-BDC: PanDDA background density correction; for Total number of conformations: ligand conformations modeled in Mac1 crystal structure; for 2*(1-BDC) (%): occupancy estimate from PanDDA 1-BDC
# Kinetic solubility = conditions: pH 7.4, aqueous buffer, kinetic from dmso stock
# [4] = preliminary screen, compound at 200 μM, mean of 3-4 technical replicates, read-out: % competition in HTRF assay
# [5] = dose-response, read-out: Human MacroD2 HTRF assay: IC50
# [6] = dose-response, read-out: Human Targ1 HTRF assay: IC50
# [7] = Caco-2, Caco-2 ratio B-A/A-B, net flux ratio
# [8] = liver microsomes, mouse microsomes, read-out: CLint (mouse) (µl/min/mg protein), mean
# [9] = liver microsomes, mouse microsome stability, read-out: CLint (mouse) (µl/min/mg protein), mean
# [10] = crystal soak 10 mM, P43 crystals
# [11] = Caco-2, compound concentration 5
# [12] = mouse, microsomes, 1 μM compound, 0.5 mg/ml microsomal protein, read-out: Mouse microsome T1/2
# [13] = mouse microsomes, read-out: CLint (mouse)
smiles,measurement,setting,value
"CC(C)(O)[C@H]1CCCN1c1ncnc2[nH]ccc12 [AVI-607, 2-[(2R)-1-{7H-Pyrrolo[2,3-d]pyrimidin-4-yl}pyrrolidin-2-yl]propan-2-ol]",Hill slope,"[1]; HTRF dose-response fit, Mac1",1.5
same,inhibition at 200 µM,"[1]; Single dose, concentration 200 μM, read-out: SARS CoV-2 macrodomain HTRF assay: Average % competition",100%
same,SARS CoV-2 macrodomain HTRF assay: Hillslope,[1]; dose-response fit,1.5
same,inhibition at 200 µM,[1]; [4],100%
same,IC50,[2]; [5],> 1000 µM
same,binding to the human macrodomain MacroD2,[2]; in words,none
same,IC50,human macrodomain Targ1; [6],> 1000 µM
same,binding to the human macrodomain Targ1,human macrodomain Targ1; in words,none
same,Papp A→B at 1 h,in vitro,22 ×10⁻⁶ cm/s
same,Papp B→A at 1 h,in vitro,15.7 ×10⁻⁶ cm/s
same,efflux ratio at 1 h,in vitro; [7],0.7
same,efflux ratio at 1 h,"in vitro; Caco-2, Ratio (B-A/A-B)",0.71
same,Recover Rate (%),"Caco-2 cells; human, Caco-2, 1 h",93%
same,microsomal CLint at 1 µM,Microsomal stability; [8],73 µL/min/mg
same,half-life at 1 µM,"Microsomal stability; mouse, microsomes",19 min
same,microsomal CLint at 1 µM,"Microsomal stability; mouse, microsomes",73 µL/min/mg
same,1-BDC,[3],0.44
same,"Pandda run, overall: Modeling comment","[3]; crystal soak, soak concentration 10 mM","High occupancy, use manual refinement"
same,"Pandda run, overall: Hit","[3]; crystal soak, soak concentration 10 mM, TRUE = ligand hit",TRUE
same,Total number of conformations,[3],1
same,2*(1-BDC) (%),[3],88%
same,X-ray crystallography: Binding site,[3]; site where the ligand is bound in the X-ray crystal structure,Adenosine
same,"PanDDA run, DMSO background map: 1-BDC",[3]; soak concentration 10 mM,0.42 and 0.44
same,"PanDDA run, DMSO background map: Hit",[3]; soak concentration 10 mM,TRUE
same,solubility kinetic at […],Kinetic solubility; phosphate buffered saline,518 µM
CC(c1ccccc1)C(CO)Nc1ncnc2[nH]ccc12 (stereo not shown) [AVI-3669],Hill slope,"[1]; HTRF dose-response fit, Mac1",1.2
same,Hill slope,"[1]; SARS CoV-2 macrodomain HTRF assay, dose-response",1.2
same,inhibition at 200 µM,"[1]; Single dose, concentration 200 μM, read-out: Average % competition",98%
same,inhibition at 200 µM,[1]; [4],98%
same,IC50,"[2]; Human MacroD2 HTRF assay, dose-response, read-out: IC50",> 1000 µM
same,binding to the human macrodomain MacroD2,[2]; in words,none
same,IC50,"human macrodomain Targ1; Human Targ1 HTRF assay, dose-response, read-out: IC50",> 1000 µM
same,binding to the human macrodomain Targ1,human macrodomain Targ1; in words,none
same,Papp A→B at 1 h,in vitro,19.4 ×10⁻⁶ cm/s
same,Papp B→A at 1 h,in vitro,14.5 ×10⁻⁶ cm/s
same,efflux ratio at 1 h,in vitro; [7],0.7
same,efflux ratio at 1 h,"in vitro; Caco-2, Ratio (B-A/A-B)",0.75
same,Recover Rate (%),"Caco-2 cells; human, Caco-2, 1 h",93%
same,microsomal CLint at 1 µM,Microsomal stability; [9],166 µL/min/mg
same,half-life at 1 µM,"Microsomal stability; mouse, microsomes",8.3 min
same,microsomal CLint at 1 µM,"Microsomal stability; mouse, microsomes",166 µL/min/mg
same,1-BDC,[3],0.14
same,X-ray crystal structure,[3]; X-ray crystal structure determined (TRUE),TRUE
same,"Pandda run, overall: Hit",[3]; [10],TRUE
same,"Pandda run, overall: Modeled",[3]; [10],TRUE
same,"PanDDA run, DMSO background map: 1-BDC",[3]; crystal soak 10 mM,0.14
same,"PanDDA run, DMSO background map: Hit",[3]; crystal soak 10 mM,TRUE
same,Total number of conformations,[3],1
same,2*(1-BDC) (%),[3],28%
same,Binding site,[3]; site of ligand in X-ray crystal structure,Adenosine
same,solubility kinetic at […],Kinetic solubility; phosphate buffered saline,529 µM
"O=C1CCCN1Nc1ncnc2[nH]c3cc(F)ccc3c12 [AVI-219, reference compound]",Papp A→B at 1 h,in vitro,10.6 ×10⁻⁶ cm/s
same,Papp B→A at 1 h,in vitro,16.8 ×10⁻⁶ cm/s
same,efflux ratio at 1 h,in vitro; [7],1.6
same,Recover Rate (%),Caco-2 cells; [11],98%
same,microsomal CLint at 1 µM,Microsomal stability; [9],53.1 µL/min/mg
same,half-life at 1 µM,"Microsomal stability; liver microsomes, mouse microsome stability, read-out: T1/2 (min), mean",26.1 min
same,microsomal CLint at 1 µM,"Microsomal stability; mouse, microsomes",53.1 µL/min/mg
same,solubility kinetic at […],Kinetic solubility; phosphate buffered saline,127 µM
C[C@H]1CCCN(c2ncnc3[nH]ccc23)[C@H]1CO [AVI-3716],IC50,[2]; [5],> 1000 µM
same,binding to the human macrodomain MacroD2,[2]; in words,none
same,IC50,human macrodomain Targ1; [6],> 1000 µM
same,binding to the human macrodomain Targ1,human macrodomain Targ1; in words,none
same,Papp A→B at 1 h,in vitro,25.9 ×10⁻⁶ cm/s
same,Papp B→A at 1 h,in vitro,18.9 ×10⁻⁶ cm/s
same,Recover Rate (%),Caco-2 cells; [11],104%
same,microsomal CLint at 1 µM,Microsomal stability; [8],44.4 µL/min/mg
same,"Mouse microsome stability: T1/2 (min), mean",Microsomal stability; mouse microsomes,31.2 min
same,microsomal CLint at 1 µM,"Microsomal stability; mouse, microsomes",44.4 µL/min/mg
same,half-life at 1 µM,Microsomal stability; [12],31.2 min
same,solubility kinetic at […],Kinetic solubility; phosphate buffered saline,523 µM
"Cc1c[nH]c2ncnc(NCC3(O)CCCCC3)c12 [AVI-3761, 1-(((5-methyl-7H-pyrrolo[2,3-d]pyrimidin-4-yl)amino)methyl)cyclohexan-1-ol]",IC50,[2],> 1000 µM
same,binding to the human macrodomain MacroD2,[2],none
same,IC50,human macrodomain Targ1,> 1000 µM
same,binding to the human macrodomain Targ1,human macrodomain Targ1,none
same,Papp A→B at 1 h,in vitro,21.5 ×10⁻⁶ cm/s
same,Papp B→A at 1 h,in vitro,11.2 ×10⁻⁶ cm/s
same,Recover Rate (%),"Caco-2 cells; human, Caco-2, 1 h",86%
same,"T1/2 (min), mean",Microsomal stability; mouse microsome stability,7.49 min
same,half-life at 1 µM,Microsomal stability; [12],7.49 min
same,microsomal CLint at 1 µM,Microsomal stability; [13],185 µL/min/mg
"O=C(Nc1ccc(C(=O)N[C@H]2c3cccc(O)c3C[C@H]2C(=O)O)cc1)NC1CC1 [AVI-92, reference compound]",Papp A→B at 1 h,in vitro,0.04 ×10⁻⁶ cm/s
same,Papp B→A at 1 h,in vitro,1.7 ×10⁻⁶ cm/s
same,efflux ratio at 1 h,in vitro; [7],40.7
same,efflux ratio at 1 h,"in vitro; Caco-2, Ratio (B-A/A-B), Caco-2, compound concentration 5",42.5
same,Recover Rate (%),Caco-2 cells; [11],91%
same,"CLint (mouse) (µl/min/mg protein), mean",Microsomal stability; mouse microsome stability,<11.6 µl/min/mg protein
same,"T1/2 (min), mean",Microsomal stability; mouse microsome stability,>120 min
same,half-life at 1 µM,Microsomal stability; [12],> 120 min
same,microsomal CLint at 1 µM,Microsomal stability; [13],< 11.6 µL/min/mg
same,solubility kinetic at […],Kinetic solubility,524 µM

# — doi:10.1101/2024.08.25.609621 (bioRxiv, 2024)
